Experimental findings from patent US7915287B2, “Substituted heterocycles and methods of use” (Amgen Inc., priority 2006, dated 2011) are described below.

T1 sequence (P08581 1058-1365): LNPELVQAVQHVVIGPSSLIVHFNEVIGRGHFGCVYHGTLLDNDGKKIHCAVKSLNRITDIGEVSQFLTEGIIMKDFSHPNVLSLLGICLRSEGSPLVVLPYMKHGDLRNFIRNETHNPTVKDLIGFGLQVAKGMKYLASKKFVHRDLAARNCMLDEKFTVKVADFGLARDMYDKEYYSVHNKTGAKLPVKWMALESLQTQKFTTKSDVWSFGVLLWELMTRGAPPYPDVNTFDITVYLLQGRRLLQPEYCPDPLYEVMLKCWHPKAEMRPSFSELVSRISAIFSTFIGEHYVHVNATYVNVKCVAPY

This assay concerns the target T1, c-Met (Homo sapiens, UniProt P08581).
T1 construct: A PCR product covering residues 1058-1365 of c-Met (c-Met kinase domain) is generated; made in house; host or cells: baculovirus-infected (insect) cells
Description: c-Met receptor assay (HTRF kinase assay with GST-cMet (P), gastrin and ATP). The settings on record: illustrative activity values. The format is biochemical. As to the method: Phosphorylation of the purified GST-cMET is performed by incubating the protein for 3 h at RT with the following:
After incubation, the solution is concentrated in a Vivaspin 20 ml Concentrator to a volume less than 2.00 ml. The solution is applied to the same Superdex 75 16/60 column used above after re-equilibration. The GST-cMET is eluted as described above. The elution fractions corresponding to the first eluted peak on the chromatogram are run on a 12% Tris Glycine gel, as above, to identify the fractions with GST-cMET. Fractions are pooled and the OD280 is read with the column buffer used as the blank.
A Kinase reaction Buffer is prepared as follows:
When the assay is carried out, freshly add:
The HTRF buffer contains:
1. Dilute GST-cMet (P) enzyme in kinase buffer as follows:
2. Assay plate preparation:
Then incubate the plate at RT for 30 min.
3. Prepare Gastrin and ATP working solution in kinase reaction buffer as follows:
Use Biomek FX to add 20 μl ATP and Gastrin working solution to the assay plate to start reaction, incubate the plate at RT for 1 h.
KM ATP, KM gastrin for various enzymes were determined by HTRF/^33P labeling and HTRF methods.
Cloning, Expression and Purification of c-Met Kinase Domain
Alternative Purification of Human GST-cMET from Baculovirus Cells
The resin is washed with 10 column volumes (100 mL) of Lysis Buffer. […] The elution is collected as 15 mL fractions. Aliquots of the elution fractions are run on SDS PAGE (12% Tris Glycine gel, Invitrogen, #EC6005BOX). The gel is stained with 0.25% Coomassie Blue stain. Fractions with GST-cMET are concentrated with a Vivaspin 20 mL Concentrator (#VS2002; 10.00 MW cutoff) to a final volume less than 2.0 ml. […] The GST-cMET is eluted with an isocratic run of the above buffer, with the eluent collected in 1.0 mL fractions. Fractions with significant OD280 readings are run on another 12% Tris Glycine gel. The peak tubes with GST-cMET are pooled and the OD280 is read with the column buffer listed above as the blank buffer. […]
Turning to `COc1cc2nccc(Oc3ccc(Nc4ncccc4C(=O)Nc4ncco4)cc3)c2cc1OC` [Example 29, 2-(4-(6,7-dimethoxyquinoline-4-yloxy)phenylamino)-N-(oxazol-2-yl)nicotinamide], the Ki is 196 nM.

As to `COc1ccccc1NC(=O)c1cccnc1Nc1ccc(Oc2ccnc3cc(OCc4ccccc4)c(OC)cc23)c(F)c1` [Example 10, 2-(4-(7-(benzyloxy)-6-methoxyquinolin-4-yloxy)-3-fluorophenylamino)-N-(2-methoxyphenyl)nicotinamide], affinity was put at a Ki of 40.5 nM. This Ki is about 4.8-fold lower than that of the compound before.

In turn, `COc1cc2nccc(Oc3ccc(Nc4ncccc4C(=O)NC(C)c4nccs4)cc3)c2cc1OC` (stereo not drawn) [Example 24, 2-(4-(6,7-dimethoxyquinoline-4-yloxy)phenylamino)-N-(1-(thiazol-2-yl)ethyl)nicotinamide] gave an inhibition constant (Ki) of 136 nM. The compound `COc1ccc2c(Oc3ccc(Nc4nccnc4C(=O)Nc4ccccc4)cc3F)ccnc2c1` [Example 36, 3-(3-fluoro-4-(7-methoxyquinolin-4-yloxy)phenylamino)-N-phenylpyrazine-2-carboxamide] returned a Ki of 29.3 nM. This Ki is about 4.6-fold lower than that of the compound before. As for `COc1ccc2c(Oc3ccc(Nc4ncc(-c5ccsc5)cc4C(=O)Nc4ccccc4)cc3F)ccnc2c1` [Example 4, 2-(3-fluoro-4-(7-methoxyquinolin-4-yloxy)phenylamino)-N-phenyl-5-(thiophen-3-yl)nicotinamide], the affinity, expressed as Ki, was 4.7 nM. For `CSc1ncc(C(=O)Nc2ccccc2)c(Nc2ccc(Oc3ccnc(NC(=O)N4CCCC4)c3)c(F)c2)n1` [Example 30, 4-(3-fluoro-4-(2-(pyrrolidine-1-carboxamido)pyridin-4-yloxy)phenylamino)-2-(methylthio)-N-phenylpyrimidin-5-carboxamide] the value was 0.2 nM; for `Cc1cnc(Nc2ccc(Oc3ccnc(NC(=O)N4CCOCC4)c3)c(F)c2)c(C(=O)Nc2ccccc2)c1` [Example 1, N-(4-(2-fluoro-4-(5-methyl-3-(phenylcarbamoyl)pyridin-2-ylamino)phenoxy)pyridin-2-yl)morpholine-4-carboxamide], 1.7 nM; for `O=C(Nc1ccccc1)c1cccnc1Nc1ccc(Oc2ccnc(NC(=O)N3CCCC3)c2)c(F)c1` [Example 5, 2-(3-fluoro-4-(2-(pyrrolidine-1-carboxamido)pyridin-4-yloxy)phenylamino)-N-phenylnicotinamide], 0.6 nM. To `CNC(=O)c1cccnc1Nc1ccc(Oc2ccnc3cc(OC)c(OC)cc23)cc1` [Example 26, 2-(4-(6,7-dimethoxyquinoline-4-yloxy)phenylamino)-N-methylnicotinamide] belongs 498 nM; to `COc1cc2c(Oc3ccc(Nc4ncccc4C(=O)NCc4ccccc4)cc3)ccnc2cc1OCCCN1CCOCC1` [Example 15, N-benzyl-2-(4-(6-methoxy-7-(3-morpholinopropoxy)quinolin-4-yloxy)phenylamino)nicotinamide], 4.8 nM. `COc1cc2nccc(Oc3ccc(Nc4ncccc4C(=O)NCc4ncc[nH]4)cc3)c2cc1OC` [Example 28, N-((1H-imidazol-2-yl)methyl)-2-(4-(6,7-dimethoxyquinoline-4-yloxy)phenylamino)nicotinamide] had a Ki of 576 nM. This Ki is about 120-fold higher than that of the compound before. In turn, `COc1cc2nccc(Oc3ccc(Nc4ncccc4C(=O)NCc4nccs4)cc3)c2cc1OC` [Example 27, 2-(4-(6,7-dimethoxyquinoline-4-yloxy)phenylamino)-N-(thiazol-2-ylmethyl)nicotinamide] gave an inhibition constant (Ki) of 180 nM.
